Measurements taken from US20070032477A1, “Pteridine derivatives useful for making pharmaceutical compositions” (priority 2003, published 2007).

System: CII induced rheumatoid arthritis in DBA mice
Assay: Collagen type II induced model of rheumatoid arthritis
Conditions: mice in vivo; example 17 up to 40 mg/kg/day; methotrexate 10 mg/kg/day, 3 times a week
Description: Collagen type II (hereinafter referred as CII) induced experimental model of rheumatoid arthritis (hereinafter referred as RA) in DBA mice is widely accepted as the most relevant and predictive preclinical model for RA. In this model, DBA mice are immunized with CII, the collagen type mainly present in the joint structures, together with complete Freund Adjuvant in their tail. 2 to 3 weeks later, several of the immunized mice start to develop arthritis in the four footpaths. In order to further worsen the disease, mice are given a second CII boost at three weeks after the first immunisation, this time however in a footpath. Because the immune system is already immunised in these mice, this rapidly provokes a severe swelling of the injected footpath (named Delayed Type Hypersensitivity or DTH) which can be used as a measurement for T-cell activation. Within a few days after the booster, almost all untreated animals start developing symptoms of arthritis. RA development is scored from 0 to 16 (16 being severe clinical arthritis in all four footpaths). At the end of the study (3 weeks after the CII boost) antibody formation was determined against CII and histology performed on the footpaths.
The efficiency of the pteridine derivative of example 17 (administered in an amount of 20 mg/kg/day, started one day before the CII boost) was explored in this CII-model.

## CN(Cc1cnc2nc(N)nc(N)c2n1)c1ccc(C(=O)N[C@@H](CCC(=O)O)C(=O)O)cc1 [methotrexate, reference compound]
  mortality or cytotoxic effect on increasing the dose: death of all animals
